# From patent US20160361314A1, “COMBINATION OF AN ALK INHIBITOR AND A CDK INHIBITOR FOR THE TREATMENT OF CELL PROLIFERATIVE DISEASES” (NOVARTIS AG, priority 2013, published 2016)
# Like-named read-outs stand apart in the source and are kept apart here.
# Legend:
# [1] = tested on: NB1643 neuroblastoma cells (R1275Q); experiment: xCELLigence in vitro growth inhibition and Chou-Talalay combination index; details: for IC50: Homo sapiens; for Dose Reduction Index (DRI, from calculations) / Drug alone dose giving Fa (calculated) / Dose Reduction Index (DRI) / Drug alone dose giving Fa: NB1643; for Dose Reduction Index (DRI, from calculations) / Drug alone dose giving Fa (calculated): Table 7; for Dose Reduction Index (DRI): A1 and B co-treatment
# Experimental: (§1) The concentration dependence of the anti-proliferation effect for both combination partners, first alone and then in combination were measured using the xCELLigence system. CI for each of the treatments was computed by CalcuSyn v2 software (Biosoft, MO).
# (§2) In vitro inhibitory activity was determined in five (5) neuroblastoma cell lines with a 96-well Real-Time Cell Electronic Sensing xCELLigence system (ACEA, San Diego, Calif.) which measures a “cell index”. Cell index is derived from alterations in electrical impedance as cells interact with the biocompatible microelectrode surface in each well to measure substrate adherent proliferation. […] After 24 hours, the plated cells were treated in triplicate with the test compound, each dose as indicated or with DMSO vehicle control. […] At 72 hours after drug exposure, the cell index was recorded.
# (§3) The IC50 was calculated using GraphPad Prism 5.0 four parameter variable slope fitting. These values were used in dosing of the combination study which follows.
# (§4) Drug combination effects and quantification of synergy were determined using the Chou-Talalay combination index method (Trends Pharmacol Sci 4, 450-454) and CalcuSyn v2 software (Biosoft, MO) in four neuroblastoma cell lines. Cells were plated and in vitro proliferation was measured using the xCELLigence system as described above.
# (§5) The anti-proliferation potency of each individual agent was estimated by the median-effect dose, Dm. […] Fa=0 is determined based on DMSO control by the dose, and Fa=1 is a full response (no viable cells left) and. • Fu: fraction unaffected by dose where fu=1−fa.
# (§6) The effect of combination drug effects was determined utilizing the combination index (CI) as defined by Chou according to the following equation:
# (§7) where (Dx)1 and (Dx)2 are the concentrations of compounds D1 and D2 needed to produce a given level of anti-proliferative effect when used individually, whereas (D)1 and (O)2 are their concentrations that produce the same anti-proliferative effect when used in combination. The combination index is a quantitative measure of drug interaction defined as an additive effect (CI=1), antagonism (CI>1), or synergy (CI<1). Typically, a CI range, as used herein, is used to assess synergy. A combination index of 0.9-1.1 indicates additive interaction, values below 0.9 indicate synergism, and values over 1.1 indicate antagonism. The follow is a description of the CI ranges: • <0.1+++++ Very strong synergism • 0.1-0.3++++ Strong synergism • 0.3-0.7+++ Synergism • 0.7-0.85++ Moderate synergism • 0.85-0.90+ Slight synergism • 0.90-1.10± Nearly additive • 1.10-1.20− Slight antagonism • 1.20-1.45−− Moderate antagonism
# (§8) The combination index was used to assess the Dose-Reduction Index (DRI) (Chou and Chou, 1988), where:
# CI=(D)1/(Dx)1+(D)2/Dx)2=1/(DRI)1+1/(DRI)2
# The DRI estimates how much the dose of each drug can be reduced when synergistic drugs are given in combination, while still achieving the same effect size as each drug administered individually.
# [2] = tested on: SKNAS neuroblastoma cells (WT); experiment: xCELLigence in vitro growth inhibition (IC50); format: cell-based; details: Homo sapiens, SK-N-AS, 72 hours, single agent
# Experimental: (§9) In vitro inhibitory activity was determined in five (5) neuroblastoma cell lines with a 96-well Real-Time Cell Electronic Sensing xCELLigence system (ACEA, San Diego, Calif.) which measures a “cell index”. Cell index is derived from alterations in electrical impedance as cells interact with the biocompatible microelectrode surface in each well to measure substrate adherent proliferation. Depending on the growth kinetics, the following cell densities were plated per well: NB1643: 20,000; SHSY5Y: 6,000; SKBE2C:10,000; NBEBC1: 11,000; NB1691: 30,000. After 24 hours, the plated cells were treated in triplicate with the test compound, each dose as indicated or with DMSO vehicle control. […] At 72 hours after drug exposure, the cell index was recorded.
# (§10) The IC50 was calculated using GraphPad Prism 5.0 four parameter variable slope fitting.
# [3] = tested on: human neuroblastoma SH-SY5Y (F1174L ALK mutation) xenografts; details: CB17 SCID mice; A1 50 mg/kg, B 250 mg/kg reduced to 187.5 mg/kg on day 5; p.o. gavage
# Experimental: Enhancement of efficacy studies were conducted in vivo on CB17 SCID mice against human neuroblastoma SH-SY5Y (bearing an F1174L ALK mutation) xenografts.
# CB17 scid female mice (Taconic Farms) were used to propagate subcutaneously implanted neuroblastoma tumors. Tumor diameters were measured twice per week with electronic calipers, and tumor volumes were calculated with the spheroid formula, (p/6)×d3, where d represents mean diameter. […] Mice were euthanized when tumor volume exceeded 3000 mm^3 or at the study conclusion at 7 weeks. A mixed-effects linear model was used to assess tumor volume over time between treatment and vehicle groups, controlling for tumor size at enrollment. Event-free survival probabilities were estimated using the Kaplan-Meier method and survival curves were compared using the log-rank test (SAS 9.3 and Stata 12.1). An event was defined as time to tumor volume ≧3000 mm^3, and tumor volumes after week 7 were censored. Mice were maintained under protocols and conditions approved by our institutional animal care and use committee.
# [4] = tested on: NB1643 (R1275Q) human neuroblastoma cells; experiment: ApoTox-Glo Triplex assay, viability and caspase 3/7 apoptosis; format: cell-based; details: 72 hours, 1/4 to 4 times IC50, equipotent ratio
# Experimental: The effect of treatment with the combinations of the invention on cell viability and apoptosis were evaluated in three human neuroblastoma cell lines: NB1643 (R1275Q), SH-SY5Y (F1174L) and EBC1 (WT) using the ApoTox-Glo Triplex assay. For confirmation, the treatment effect on cell viability was also evaluated in NB1643 (R1275Q) using the CellTitre-Glo (CTG) Luminescent Cell Viability assay. The assays were described, infra.
# The test mixtures were evaluated by 72 hours after dosing, and the results were plotted in FIGS. 11A-C, 12A-C, 13A-C and 14A-C.
# In vitro cell viability and Caspase-Glo 3/7 were simultaneously assayed using the ApoTox-Glo Triplex Assay (Promega, Calif.) in three neuroblastoma cell lines. […] After 72 hours of drug exposure, the fluorogenic substrate GF-AFC was added. The test mixture was incubated for 10 minutes and AFC fluorescence was measured at 380-400nm excitation and 505 nm emission.
# Following measurement of live cell fluorescence, a luminogenic Caspase-Glo 3/7 substrate and luciferase was added to the same wells. Luminescence was measured after a 30 minutes incubation period. Luciferin is released following cleavage of the substrate by caspase-3/7, and thereby the luminescent signal is proportional to caspase activity.
# [5] = tested on: NB1691 neuroblastoma cells (WT); experiment: xCELLigence in vitro growth inhibition and Chou-Talalay combination index; format: cell-based; details: Homo sapiens
# [6] = tested on: NBEBC1 neuroblastoma cells (WT); experiment: as above; format: cell-based; details: Homo sapiens, Neuroblastoma cell, single agent
# [7] = tested on: SHSY5Y neuroblastoma cells (F1174L); experiment: as above; format: cell-based; details: Homo sapiens, SH-SY5Y, single agent
# Experimental: as §1, §2, §3, §4, §5, §6, §7, §8
# CI=(D)1/(Dx)1+(D)2/Dx)2=1/(DRI)1+1/(DRI)2 […]
# [8] = tested on: SH-SY5Y (F1174L) human neuroblastoma cells; experiment: Cell morphology and cell death by optical microscopy; format: cell-based; details: each compound at its IC50, 72 hours after treatment
# Source text: Synergistic anti-proliferative effect of the combination of our invention was visualized by optical microscopy. […] Seventy-two hours after treatment, the treated samples were compared to the untreated samples (vehicle) by optical microscopy and recorded in micrographs (FIGS. 10A to D).
# [9] = tested on: SKNFI neuroblastoma cells (WT); experiment: xCELLigence in vitro growth inhibition (IC50); format: cell-based; details: Homo sapiens, SK-N-FI, 72 hours, single agent
# Experimental: as §9, §10
# [10] = tested on: SKBE2C neuroblastoma cells (WT); experiment: xCELLigence in vitro growth inhibition (IC50, Dm); format: cell-based; details: Homo sapiens, Neuroblastoma cell, single agent
# Experimental: as §9, §10, §4, §5
# [11] = NB-1643, read-out: Dm (median-effect dose)
# [12] = Fa 0.51, Table 6, from experimental values
# [13] = Fa 0.75, Table 6, from experimental values
# [14] = Fa 0.83, Table 6, from experimental values
# [15] = Fa 0.9, first of two Fa 0.9 lines, Table 6
# [16] = Fa 0.9, second of two Fa 0.9 lines, Table 6
# [17] = NB-1691, 72 hours, single agent, read-out: IC50
# [18] = NB-1691, single agent, read-out: Dm (median-effect dose)
# [19] = read-out: Dm (median-effect dose)
smiles,measurement,setting,value
"Cc1cc(Nc2ncc(Cl)c(Nc3ccccc3S(=O)(=O)C(C)C)n2)c(OC(C)C)cc1C1CCNCC1 [Compound A1, 5-chloro-N2-(2-isopropoxy-5-methyl-4-(piperidin-4-yl)phenyl)-N4-[2-(propane-2-sulfonyl)-phenyl]-pyrimidine-2,4-diamine]",IC50,"[1]; NB-1643, 72 h",222 nM
same,IC50,[1]; [11],173 nM
same,"Dose Reduction Index (DRI, from calculations)",[1]; Fa 0.020,3.099
same,Drug alone dose giving Fa (calculated),[1]; Fa 0.020,0.0007501 µM
same,"Dose Reduction Index (DRI, from calculations)",[1]; Fa 0.050,3.455
same,Drug alone dose giving Fa (calculated),[1]; Fa 0.050,0.0028193 µM
same,"Dose Reduction Index (DRI, from calculations)",[1]; Fa 0.100,3.764
same,Drug alone dose giving Fa (calculated),[1]; Fa 0.100,0.0080106 µM
same,"Dose Reduction Index (DRI, from calculations)",[1]; Fa 0.150,3.969
same,Drug alone dose giving Fa (calculated),[1]; Fa 0.150,0.015292 µM
same,"Dose Reduction Index (DRI, from calculations)",[1]; Fa 0.200,4.130
same,Drug alone dose giving Fa (calculated),[1]; Fa 0.200,0.0248814 µM
same,"Dose Reduction Index (DRI, from calculations)",[1]; Fa 0.250,4.269
same,Drug alone dose giving Fa (calculated),[1]; Fa 0.250,0.0371953 µM
same,"Dose Reduction Index (DRI, from calculations)",[1]; Fa 0.300,4.394
same,Drug alone dose giving Fa (calculated),[1]; Fa 0.300,0.0528478 µM
same,"Dose Reduction Index (DRI, from calculations)",[1]; Fa 0.350,4.510
same,Drug alone dose giving Fa (calculated),[1]; Fa 0.350,0.0727063 µM
same,"Dose Reduction Index (DRI, from calculations)",[1]; Fa 0.400,4.622
same,Drug alone dose giving Fa (calculated),[1]; Fa 0.400,0.0979951 µM
same,"Dose Reduction Index (DRI, from calculations)",[1]; Fa 0.450,4.732
same,Drug alone dose giving Fa (calculated),[1]; Fa 0.450,0.130469 µM
same,"Dose Reduction Index (DRI, from calculations)",[1]; Fa 0.500,4.842
same,Drug alone dose giving Fa (calculated),[1]; Fa 0.500,0.1727061 µM
same,Dose Reduction Index (DRI),[1]; [12],3.321
same,Drug alone dose giving Fa,[1]; [12],0.1826374 µM
same,"Dose Reduction Index (DRI, from calculations)",[1]; Fa 0.550,4.954
same,Drug alone dose giving Fa (calculated),[1]; Fa 0.550,0.2286167 µM
same,"Dose Reduction Index (DRI, from calculations)",[1]; Fa 0.600,5.072
same,Drug alone dose giving Fa (calculated),[1]; Fa 0.600,0.3043766 µM
same,"Dose Reduction Index (DRI, from calculations)",[1]; Fa 0.650,5.198
same,Drug alone dose giving Fa (calculated),[1]; Fa 0.650,0.4102451 µM
same,"Dose Reduction Index (DRI, from calculations)",[1]; Fa 0.700,5.336
same,Drug alone dose giving Fa (calculated),[1]; Fa 0.700,0.564402 µM
same,Dose Reduction Index (DRI),[1]; [13],7.224
same,Drug alone dose giving Fa,[1]; [13],0.8019141 µM
same,"Dose Reduction Index (DRI, from calculations)",[1]; Fa 0.750,5.492
same,Drug alone dose giving Fa (calculated),[1]; Fa 0.750,0.8019141 µM
same,"Dose Reduction Index (DRI, from calculations)",[1]; Fa 0.800,5.676
same,Drug alone dose giving Fa (calculated),[1]; Fa 0.800,1.1987842 µM
same,Dose Reduction Index (DRI),[1]; [14],7.135
same,Drug alone dose giving Fa,[1]; [14],1.5839055 µM
same,"Dose Reduction Index (DRI, from calculations)",[1]; Fa 0.850,5.907
same,Drug alone dose giving Fa (calculated),[1]; Fa 0.850,1.9505238 µM
same,Dose Reduction Index (DRI),[1]; [15],8.386
same,Drug alone dose giving Fa,[1]; [15],3.7234705 µM
same,Dose Reduction Index (DRI),[1]; [16],4.193
same,Drug alone dose giving Fa,[1]; [16],3.7234705 µM
same,"Dose Reduction Index (DRI, from calculations)",[1]; Fa 0.900,6.229
same,Drug alone dose giving Fa (calculated),[1]; Fa 0.900,3.7234705 µM
same,"Dose Reduction Index (DRI, from calculations)",[1]; Fa 0.950,6.786
same,Drug alone dose giving Fa (calculated),[1]; Fa 0.950,10.58 µM
same,"Dose Reduction Index (DRI, from calculations)",[1]; Fa 0.990,8.200
same,Drug alone dose giving Fa (calculated),[1]; Fa 0.990,106.3 µM
same,IC50,[2],2150 nM
same,Survival of the mice / deaths,[3],euthanized due to the size of their tumor
same,Tumor volume / tumor growth,[3],only a slight tumor growth delay compared to vehicle control
same,Cell viability (cell death) and apoptosis,[4],effective in causing cell death and apoptosis
same,IC50,[5]; [17],1930 nM
same,IC50,[5]; [18],762 nM
same,IC50,"[6]; 72 hours, read-out: IC50",1920 nM
same,IC50,[6]; [19],1660 nM
same,IC50,"[7]; 72 hours, read-out: IC50",963 nM
same,IC50,[7]; [19],1500 nM
same,Intact cells and cell morphology by micrograph,[8],significant reduction in the number of intact cells
same,IC50,[9],3480 nM
same,IC50,"[10]; 72 hours, read-out: IC50",603 nM
same,IC50,[10]; [19],350 nM
"CN(C)C(=O)c1cc2cnc(Nc3ccc(N4CCNCC4)cn3)nc2n1C1CCCC1 [Compound B, 7-cyclopentyl-N,N-dimethyl-2-((5-(piperazin-1-yl)pyridin-2-yl)amino)-7H-pyrrolo[2,3-d]pyrimidine-6-carboxamide]",IC50,"[1]; NB-1643, 72 h",750 nM
same,IC50,[1]; [11],788 nM
same,Drug alone dose giving Fa (calculated),[1]; Fa 0.020,0.0013507 µM
same,Drug alone dose giving Fa (calculated),[1]; Fa 0.050,0.0063668 µM
same,Drug alone dose giving Fa (calculated),[1]; Fa 0.100,0.021628 µM
same,Drug alone dose giving Fa (calculated),[1]; Fa 0.150,0.0461139 µM
same,Drug alone dose giving Fa (calculated),[1]; Fa 0.200,0.0815448 µM
same,Drug alone dose giving Fa (calculated),[1]; Fa 0.250,0.1305781 µM
same,Drug alone dose giving Fa (calculated),[1]; Fa 0.300,0.1970133 µM
same,Drug alone dose giving Fa (calculated),[1]; Fa 0.350,0.2862422 µM
same,Drug alone dose giving Fa (calculated),[1]; Fa 0.400,0.4060079 µM
same,Drug alone dose giving Fa (calculated),[1]; Fa 0.450,0.5676688 µM
same,Drug alone dose giving Fa (calculated),[1]; Fa 0.500,0.78836 µM
same,Drug alone dose giving Fa,[1]; [12],0.8417031 µM
same,Drug alone dose giving Fa (calculated),[1]; Fa 0.550,1.0948487 µM
same,Drug alone dose giving Fa (calculated),[1]; Fa 0.600,1.5307866 µM
same,Drug alone dose giving Fa (calculated),[1]; Fa 0.650,2.1712783 µM
same,Drug alone dose giving Fa (calculated),[1]; Fa 0.700,3.1546674 µM
same,Drug alone dose giving Fa,[1]; [13],4.7596923 µM
same,Drug alone dose giving Fa (calculated),[1]; Fa 0.750,4.7596923 µM
same,Drug alone dose giving Fa (calculated),[1]; Fa 0.800,7.6217203 µM
same,Drug alone dose giving Fa,[1]; [14],10.56 µM
same,Drug alone dose giving Fa (calculated),[1]; Fa 0.850,13.48 µM
same,Drug alone dose giving Fa,[1]; [15],28.74 µM
same,Drug alone dose giving Fa,[1]; [16],28.74 µM
same,Drug alone dose giving Fa (calculated),[1]; Fa 0.900,28.74 µM
same,Drug alone dose giving Fa (calculated),[1]; Fa 0.950,97.62 µM
same,Drug alone dose giving Fa (calculated),[1]; Fa 0.990,1455 µM
same,IC50,[2],4720 nM
same,Survival of the mice / deaths,[3],one of the mice died on day 14
same,Tumor volume / tumor growth,[3],slower tumor growth
same,Cell viability (cell death) and apoptosis,[4],only slightly effective
same,IC50,[5]; [17],315 nM
same,IC50,[5]; [18],2650 nM
same,IC50,"[6]; 72 hours, read-out: IC50",328 nM
same,IC50,[6]; [19],1260 nM
same,IC50,"[7]; 72 hours, read-out: IC50",111 nM
same,IC50,[7]; [19],1500 nM
same,Intact cells and cell morphology by micrograph,[8],minimal effect in cell numbers and cell morphology
same,IC50,[9]; unit in cell,> 6000 nM
same,IC50,"[10]; 72 hours, read-out: IC50",146 nM
same,IC50,[10]; [19],446 nM
